In patent US7625890B2, “Substituted imidazo[4,5-c]pyridine compounds as Akt inhibitors” (SmithKline Beecham Corp., priority 2005, dated 2009):
Values after ≈ are worked out from the molar mass of the structure shown. Structures can show the parent of a compound that is named as a salt.

Assay: Solubility
Format: physicochemical
Conditions: for solubility: aqueous buffer, 50 mM phosphate buffer, pH 7.4; for solubility, suitability for IV dosage forms: statement in words

With CCn1c(-c2nonc2N)nc2c(C#CC(C)(C)O)ncc(OC[C@@H]3CNCCS3)c21 (single isomer, unassigned; enantiomer e1) [Example 3, 4-{2-(4-amino-1,2,5-oxadiazol-3-yl)-1-ethyl-7-[(2-thiomorpholinylmethyl)oxy]-1H-imidazo[4,5-c]pyridin-4-yl}-2-methyl-3-butyn-2-ol dihydrochloride (enantiomer E1)] the solubility was 110 µM and the “solubility, suitability for IV dosage forms” value (shortened to “solubility, suitability”) was “suitable for formulation into dosage forms for IV administration”.

For CCn1c(-c2nonc2N)nc2c(C#CC(C)(C)O)ncc(OC[C@@H]3CN(C)CCS3)c21 (single isomer, unassigned; enantiomer e1) [Example 7, 4-(2-(4-amino-1,2,5-oxadiazol-3-yl)-1-ethyl-7-{[(4-methyl-2-thiomorpholinyl)methyl]oxy}-1H-imidazo[4,5-c]pyridin-4-yl)-2-methyl-3-butyn-2-ol (enantiomer E1)], the solubility was 23 µM (≈ 10.5 µg/mL).

In the case of CCn1c(-c2nonc2N)nc2c(C#CC(C)(C)O)ncc(OCC3CNCC(C)O3)c21 (stereo in doubt) [Example 9, 4-[2-(4-amino-1,2,5-oxadiazol-3-yl)-1-ethyl-7-({[(2R)-6-methyl-2-morpholinyl]methyl}oxy)-1H-imidazo[4,5-c]pyridin-4-yl]-2-methyl-3-butyn-2-ol, dihydrochloride], the solubility is reported as 129 µM and the “solubility, suitability” value is reported as “suitable for formulation into dosage forms for IV administration”.

In the case of CCn1c(-c2nonc2N)nc2c(C#CC(C)(C)O)ncc(OC[C@H]3CCCNC3)c21 [Example 1, 4-(2-(4-amino-1,2,5-oxadiazol-3-yl)-1-ethyl-7-{[(3S)-3-Piperidinylmethyl]oxy}-1H-imidazo[4,5-c]pyridin-4-yl)-2-methyl-3-butyn-2-ol], the solubility is reported as 210 µM (≈ 89.4 µg/mL) and the “solubility, suitability” value is reported as “suitable for formulation into dosage forms for IV administration”.

With CCn1c(-c2nonc2N)nc2c(C#CC(C)(C)O)ncc(OC[C@H]3CNCCO3)c21 [Example 2, 4-(2-(4-amino-1,2,5-oxadiazol-3-yl)-1-ethyl-7-{[(2R)-2-morpholinylmethyl]oxy}-1H-imidazo[4,5-c]pyridin-4-yl)-2-methyl-3-butyn-2-ol dihydrochloric acid salt] the solubility was 188 µM.

With CCn1c(-c2nonc2N)nc2c(C#CC(C)(C)O)ncc(OC[C@@H]3CNCCO3)c21 [Example 4, 4-(2-(4-amino-1,2,5-oxadiazol-3-yl)-1-ethyl-7-{[(2S)-2-morpholinylmethyl]oxy}-1H-imidazo[4,5-c]pyridin-4-yl)-2-methyl-3-butyn-2-ol] the solubility was 154 µM (≈ 65.8 µg/mL) and the “solubility, suitability” value was “suitable for formulation into dosage forms for IV administration”.

Compound CCn1c(-c2nonc2N)nc2c(C#CC(C)(C)O)ncc(OCC3CCNC3)c21 (centres unmarked) [Example 5, 4-{2-(4-amino-1,2,5-oxadiazol-3-yl)-1-ethyl-7-[(3-Pyrrolidinylmethyl)oxy]-1H-imidazo[4,5-c]pyridin-4-yl}-2-methyl-3-butyn-2-ol, bis-trifluoroacetic acid salt] has a solubility of 83 µM.

Compound CCn1c(-c2nonc2N)nc2c(C#CC(C)(C)O)ncc(OC[C@H]3CCCN(C)C3)c21 [Example 6, 4-[2-(4-amino-1,2,5-oxadiazol-3-yl)-1-ethyl-7-({[(3S)-1-methyl-3-piperidinyl]methyl}oxy)-1H-imidazo[4,5-c]pyridin-4-yl]-2-methyl-3-butyn-2-ol, dihydrochloride] has a solubility of 44 µM.

CCn1c(-c2nonc2N)nc2c(C#CC(C)(C)O)ncc(OC[C@@H]3CN(C)CCO3)c21 [Example 8, 4-[2-(4-amino-1,2,5-oxadiazol-3-yl)-1-ethyl-7-({[(2S)-4-methyl-2-morpholinyl]methyl}oxy)-1H-imidazo[4,5-c]pyridin-4-yl]-2-methyl-3-butyn-2-ol] gave a solubility of 34 µM (≈ 15 µg/mL).

In the case of CCN1CCO[C@H](COc2cnc(C#CC(C)(C)O)c3nc(-c4nonc4N)n(CC)c23)C1 [Example 10, 4-[2-(4-amino-1,2,5-oxadiazol-3-yl)-1-ethyl-7-({[(2S)-4-ethyl-2-morpholinyl]methyl}oxy)-1H-imidazo[4,5-c]pyridin-4-yl]-2-methyl-3-butyn-2-ol], the solubility is reported as 6 µM (≈ 2.73 µg/mL).
